According to patent US10710978B2, “STK4 inhibitors for treatment of hematologic malignancies” (Dana-Farber Cancer Institute, Inc., priority 2015, dated 2020):
Where two headings read alike, the source gives them in different places.

Experiments:
Assay in all cases: KiNativ assay
Assay type in all cases: binding
Conditions in all cases: H929 live cell
CDC2 = CDC2 (Homo sapiens (Human), UniProt P06493)
Experimental: (§1) Biochemical IC50s of the compounds of the present disclosure against various kinases were measured in a KiNativ assay. Compounds were screened in duplicate at 10 μM in H929 live cell. IC50 was measured via Mass spectroscopy (MS).

NEK6, NEK7 = test system: NEK6, NEK7
Experimental: as §1

PIK3CG = PIK3CG (Homo sapiens (Human), UniProt P48736)
Experimental: as §1

MST2 = MST2 (Homo sapiens (Human), UniProt Q13188)
Experimental: as §1

JAK1 domain1 = JAK1 domain1 (Homo sapiens (Human), UniProt P23458)
Experimental: as §1

CK1g3 = CK1g3 (Homo sapiens (Human), UniProt Q9Y6M4)
Sequence of CK1g3 (Q9Y6M4 whole entry): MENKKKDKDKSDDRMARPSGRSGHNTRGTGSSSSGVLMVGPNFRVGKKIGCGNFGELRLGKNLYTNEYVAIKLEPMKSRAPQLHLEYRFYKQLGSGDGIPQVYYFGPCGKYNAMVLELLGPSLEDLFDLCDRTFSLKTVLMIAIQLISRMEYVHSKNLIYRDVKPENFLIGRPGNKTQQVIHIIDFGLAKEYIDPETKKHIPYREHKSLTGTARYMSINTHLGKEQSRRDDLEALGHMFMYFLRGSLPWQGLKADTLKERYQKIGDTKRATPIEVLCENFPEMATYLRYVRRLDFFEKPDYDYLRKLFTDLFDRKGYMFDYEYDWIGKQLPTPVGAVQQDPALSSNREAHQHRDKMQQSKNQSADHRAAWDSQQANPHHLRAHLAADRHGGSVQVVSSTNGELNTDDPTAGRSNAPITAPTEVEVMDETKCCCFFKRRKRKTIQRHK
Experimental: as §1

STLK5 = STLK5 (Homo sapiens (Human), UniProt Q7RTN6)
Experimental: as §1

DGKH = DGKH (Homo sapiens (Human), UniProt Q86XP1)
Experimental: as §1

IKKa = IKKa (Homo sapiens (Human), UniProt O15111)
Experimental: as §1

FRAP = FRAP (Homo sapiens (Human), UniProt P42345)
Experimental: as §1

ULK1 = ULK1 (Homo sapiens (Human), UniProt O75385)
Sequence of ULK1 (O75385 whole entry): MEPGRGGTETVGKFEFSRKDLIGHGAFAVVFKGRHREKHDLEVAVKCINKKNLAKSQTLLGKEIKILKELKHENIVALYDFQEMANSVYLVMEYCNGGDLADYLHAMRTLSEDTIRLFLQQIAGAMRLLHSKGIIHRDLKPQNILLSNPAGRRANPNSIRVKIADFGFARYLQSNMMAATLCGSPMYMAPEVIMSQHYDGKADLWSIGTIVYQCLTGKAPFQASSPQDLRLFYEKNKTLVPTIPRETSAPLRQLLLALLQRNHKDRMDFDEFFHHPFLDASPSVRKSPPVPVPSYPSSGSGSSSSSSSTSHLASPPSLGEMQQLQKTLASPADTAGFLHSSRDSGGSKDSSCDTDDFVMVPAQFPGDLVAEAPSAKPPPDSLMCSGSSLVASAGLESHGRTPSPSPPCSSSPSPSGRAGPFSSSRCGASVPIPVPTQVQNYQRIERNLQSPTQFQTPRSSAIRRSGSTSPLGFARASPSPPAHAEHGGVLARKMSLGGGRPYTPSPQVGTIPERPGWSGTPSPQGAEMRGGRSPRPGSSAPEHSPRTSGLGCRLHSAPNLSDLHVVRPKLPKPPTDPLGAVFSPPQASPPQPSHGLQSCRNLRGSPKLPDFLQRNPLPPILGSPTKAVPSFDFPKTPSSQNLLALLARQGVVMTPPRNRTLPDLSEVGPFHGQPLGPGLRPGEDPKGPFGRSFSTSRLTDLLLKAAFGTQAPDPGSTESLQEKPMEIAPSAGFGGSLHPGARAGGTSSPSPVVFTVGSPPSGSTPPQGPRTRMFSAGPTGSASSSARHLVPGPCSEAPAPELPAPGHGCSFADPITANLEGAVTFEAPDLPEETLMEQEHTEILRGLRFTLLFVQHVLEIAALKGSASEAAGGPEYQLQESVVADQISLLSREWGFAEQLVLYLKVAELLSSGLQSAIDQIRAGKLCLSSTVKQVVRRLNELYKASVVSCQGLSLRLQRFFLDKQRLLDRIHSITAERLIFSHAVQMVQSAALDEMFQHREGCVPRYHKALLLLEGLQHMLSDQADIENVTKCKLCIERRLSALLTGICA
Experimental: as §1

NEK4 = NEK4 (Homo sapiens (Human), UniProt P51957)
Experimental: as §1

MAP3K5 = MAP3K5 (Homo sapiens (Human), UniProt Q99683)
Experimental: as §1

CaMK2g = CaMK2g (Homo sapiens (Human), UniProt Q13555)
Sequence of CaMK2g (Q13555 whole entry): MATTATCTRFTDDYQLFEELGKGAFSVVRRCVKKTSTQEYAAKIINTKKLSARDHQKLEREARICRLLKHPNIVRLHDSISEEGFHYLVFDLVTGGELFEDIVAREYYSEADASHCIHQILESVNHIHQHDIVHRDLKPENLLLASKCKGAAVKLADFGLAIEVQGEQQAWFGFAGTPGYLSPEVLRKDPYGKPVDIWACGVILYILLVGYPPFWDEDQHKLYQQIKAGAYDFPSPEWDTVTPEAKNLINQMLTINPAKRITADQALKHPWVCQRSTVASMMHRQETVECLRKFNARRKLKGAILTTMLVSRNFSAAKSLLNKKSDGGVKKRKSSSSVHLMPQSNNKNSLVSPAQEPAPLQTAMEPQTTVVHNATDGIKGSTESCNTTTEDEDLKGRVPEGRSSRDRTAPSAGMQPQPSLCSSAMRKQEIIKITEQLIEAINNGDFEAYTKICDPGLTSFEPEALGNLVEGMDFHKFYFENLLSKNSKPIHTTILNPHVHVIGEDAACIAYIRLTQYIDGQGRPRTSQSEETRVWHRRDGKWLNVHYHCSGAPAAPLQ
Experimental: as §1

OSR1 = OSR1 (Homo sapiens (Human), UniProt O95747)
Experimental: as §1

[1] = test system: ZC1/HGK, ZC2/TNIK, ZC3/MINK
Experimental: as §1

CaMKK2 = CaMKK2 (Homo sapiens (Human), UniProt Q96RR4)
Experimental: as §1

PKR = PKR (Homo sapiens (Human), UniProt P19525)
Experimental: as §1

LATS1 = LATS1 (Homo sapiens (Human), UniProt O95835)
Sequence of LATS1 (O95835 whole entry): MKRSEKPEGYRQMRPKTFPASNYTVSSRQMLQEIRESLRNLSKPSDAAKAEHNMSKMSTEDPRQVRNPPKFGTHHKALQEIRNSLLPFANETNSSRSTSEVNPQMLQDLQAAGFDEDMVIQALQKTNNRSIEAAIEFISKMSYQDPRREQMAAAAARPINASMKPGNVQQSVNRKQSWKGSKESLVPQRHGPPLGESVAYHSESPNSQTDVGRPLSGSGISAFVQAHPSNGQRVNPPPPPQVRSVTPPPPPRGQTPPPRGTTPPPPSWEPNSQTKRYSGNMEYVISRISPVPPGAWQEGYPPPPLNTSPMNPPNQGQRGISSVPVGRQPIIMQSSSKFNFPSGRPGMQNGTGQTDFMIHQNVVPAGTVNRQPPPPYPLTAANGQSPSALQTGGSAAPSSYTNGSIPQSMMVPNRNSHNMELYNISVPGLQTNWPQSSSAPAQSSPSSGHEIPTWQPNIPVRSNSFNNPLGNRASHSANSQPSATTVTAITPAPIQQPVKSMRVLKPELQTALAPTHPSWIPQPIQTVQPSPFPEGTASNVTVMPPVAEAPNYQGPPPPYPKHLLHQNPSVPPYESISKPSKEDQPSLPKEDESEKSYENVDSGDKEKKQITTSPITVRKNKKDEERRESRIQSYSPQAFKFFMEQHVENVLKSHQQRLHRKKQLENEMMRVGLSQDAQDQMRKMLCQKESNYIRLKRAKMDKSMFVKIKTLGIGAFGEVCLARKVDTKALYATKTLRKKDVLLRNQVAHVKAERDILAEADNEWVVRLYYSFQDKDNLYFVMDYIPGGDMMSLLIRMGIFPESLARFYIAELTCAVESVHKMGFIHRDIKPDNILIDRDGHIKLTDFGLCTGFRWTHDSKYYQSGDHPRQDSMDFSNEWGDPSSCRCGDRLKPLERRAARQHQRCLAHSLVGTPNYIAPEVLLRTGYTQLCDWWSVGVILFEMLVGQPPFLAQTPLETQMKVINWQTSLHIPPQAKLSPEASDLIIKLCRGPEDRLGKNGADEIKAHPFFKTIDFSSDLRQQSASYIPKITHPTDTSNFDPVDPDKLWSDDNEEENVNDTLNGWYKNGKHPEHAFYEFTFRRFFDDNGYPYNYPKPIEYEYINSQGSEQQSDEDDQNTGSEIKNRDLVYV
Experimental: as §1

MPSK1 = MPSK1 (Homo sapiens (Human), UniProt O75716)
Experimental: as §1

IRAK4 = IRAK4 (Homo sapiens (Human), UniProt Q9NWZ3)
Sequence of IRAK4 (Q9NWZ3 whole entry): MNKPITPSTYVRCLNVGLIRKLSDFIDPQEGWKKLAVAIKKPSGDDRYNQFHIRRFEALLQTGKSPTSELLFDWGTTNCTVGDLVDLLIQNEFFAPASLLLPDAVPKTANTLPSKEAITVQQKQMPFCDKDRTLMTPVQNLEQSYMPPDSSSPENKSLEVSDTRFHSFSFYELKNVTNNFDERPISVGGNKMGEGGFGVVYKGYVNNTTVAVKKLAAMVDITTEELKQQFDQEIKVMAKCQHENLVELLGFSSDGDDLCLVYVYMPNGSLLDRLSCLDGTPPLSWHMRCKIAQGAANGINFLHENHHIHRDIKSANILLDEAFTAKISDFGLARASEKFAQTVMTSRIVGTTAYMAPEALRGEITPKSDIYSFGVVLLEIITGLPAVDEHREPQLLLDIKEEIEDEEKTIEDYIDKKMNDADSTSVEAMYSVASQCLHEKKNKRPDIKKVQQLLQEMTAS
Experimental: as §1

KHS1 = KHS1 (Homo sapiens (Human), UniProt Q9Y4K4)
Experimental: as §1

GSK3B = GSK3B (Homo sapiens (Human), UniProt P49841)
Sequence of GSK3B (P49841 whole entry): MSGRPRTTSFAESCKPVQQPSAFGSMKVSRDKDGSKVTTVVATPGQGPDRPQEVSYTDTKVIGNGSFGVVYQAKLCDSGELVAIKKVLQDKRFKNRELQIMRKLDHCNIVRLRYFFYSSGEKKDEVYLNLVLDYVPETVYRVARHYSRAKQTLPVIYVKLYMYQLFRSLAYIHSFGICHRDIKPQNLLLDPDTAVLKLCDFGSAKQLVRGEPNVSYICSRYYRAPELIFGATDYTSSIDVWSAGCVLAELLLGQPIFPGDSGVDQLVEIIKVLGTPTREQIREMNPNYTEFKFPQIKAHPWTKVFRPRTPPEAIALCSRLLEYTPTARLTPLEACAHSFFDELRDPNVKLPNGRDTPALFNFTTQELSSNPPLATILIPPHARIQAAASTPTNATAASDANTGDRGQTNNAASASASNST
Experimental: as §1

ACK = ACK (Homo sapiens (Human), UniProt Q07912)
Experimental: as §1

MAP2K5 = MAP2K5 (Homo sapiens (Human), UniProt Q13163)
Sequence of MAP2K5 (Q13163 whole entry): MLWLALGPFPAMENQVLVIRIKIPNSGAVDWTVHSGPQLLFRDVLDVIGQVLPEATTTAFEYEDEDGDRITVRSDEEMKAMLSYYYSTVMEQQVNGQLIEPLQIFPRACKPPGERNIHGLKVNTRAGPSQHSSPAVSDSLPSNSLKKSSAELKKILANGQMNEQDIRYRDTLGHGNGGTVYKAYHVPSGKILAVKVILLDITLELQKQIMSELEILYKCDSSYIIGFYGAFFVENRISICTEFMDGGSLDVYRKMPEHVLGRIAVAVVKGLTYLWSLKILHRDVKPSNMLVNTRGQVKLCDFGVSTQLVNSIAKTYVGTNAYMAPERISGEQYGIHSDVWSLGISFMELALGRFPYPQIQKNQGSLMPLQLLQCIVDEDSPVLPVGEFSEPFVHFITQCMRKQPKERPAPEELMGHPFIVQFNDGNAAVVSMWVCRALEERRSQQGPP
Experimental: as §1

LYN = LYN (Homo sapiens (Human), UniProt P07948)
Experimental: as §1

STLK3 = STLK3 (Homo sapiens (Human), UniProt Q9UEW8)
Experimental: as §1

PKCi = PKCi (Homo sapiens (Human), UniProt P41743)
Experimental: as §1

PFTAIRE1 = PFTAIRE1 (Homo sapiens (Human), UniProt O94921)
Experimental: as §1

CDK5 = CDK5 (Homo sapiens (Human), UniProt Q00535)
Sequence of CDK5 (Q00535 whole entry): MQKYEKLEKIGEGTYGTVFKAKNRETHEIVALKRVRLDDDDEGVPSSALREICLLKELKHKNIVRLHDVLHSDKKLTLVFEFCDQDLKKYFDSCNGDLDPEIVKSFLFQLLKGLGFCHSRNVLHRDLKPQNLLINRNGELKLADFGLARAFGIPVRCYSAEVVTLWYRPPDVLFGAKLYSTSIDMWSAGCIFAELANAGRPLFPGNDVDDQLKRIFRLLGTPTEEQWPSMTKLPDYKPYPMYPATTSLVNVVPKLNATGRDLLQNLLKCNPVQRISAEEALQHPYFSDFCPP
Experimental: as §1

MST4, YSK1 = test system: MST4, YSK1
Experimental: as §1

JNK1, JNK2, JNK3 = test system: JNK1, JNK2, JNK3
Experimental: as §1

SGK3 = SGK3 (Homo sapiens (Human), UniProt Q96BR1)
Experimental: as §1

With CN(C1CC1)S(=O)(=O)c1ccc(-c2cnc(N)c(-c3ccc4c(c3)CCNC4=O)c2)c(F)c1 [Compound I-28, 4-(6-amino-5-(1-oxo-1,2,3,4-tetrahydroisoquinolin-6-yl)pyridin-3-yl)-N-cyclopropyl-3-fluoro-N-methylbenzenesulfonamide] the inhibition at 10 µM (CDC2; read-out: % inhibition (range)) was 0%, the inhibition at 10 µM (CDC2; read-out: inhibition (10 μM)) was -26.5% and the “% inhibition (range)” value (NEK6, NEK7; 10 μM) was 0.0%. The “inhibition (10 μM)” value (NEK6, NEK7) was −10.5%, the inhibition at 10 µM (PIK3CG; read-out: % inhibition (range)) was 0% and the inhibition at 10 µM (PIK3CG; read-out: inhibition (10 μM)) was 1.7%. The inhibition at 10 µM (MST2; read-out: % inhibition (range)) was 75 to 90%, the inhibition at 10 µM (MST2; read-out: inhibition (10 μM)) was 89.3% and the inhibition at 10 µM (JAK1 domain1; read-out: % inhibition (range)) was 0%. The inhibition at 10 µM (JAK1 domain1; read-out: inhibition (10 μM)) was -38.6%, the inhibition at 10 µM (CK1g3; read-out: % inhibition (range)) was over 90% and the inhibition at 10 µM (CK1g3; read-out: inhibition (10 μM)) was 93.8%. It also gave an inhibition at 10 µM (STLK5; read-out: % inhibition (range)) of 0%, an inhibition at 10 µM (STLK5; read-out: inhibition (10 μM)) of 6.3% and an inhibition at 10 µM (DGKH; read-out: % inhibition (range)) of 0%. The inhibition at 10 µM (DGKH; read-out: inhibition (10 μM)) was 10.9%, the inhibition at 10 µM (IKKa; read-out: % inhibition (range)) was 0% and the inhibition at 10 µM (IKKa; read-out: inhibition (10 μM)) was 6.4%. For the same compound, the inhibition at 10 µM (FRAP; read-out: % inhibition (range)) was 35 to 50%, the inhibition at 10 µM (FRAP; read-out: inhibition (10 μM)) was 35.3% and the inhibition at 10 µM (ULK1; read-out: % inhibition (range)) was 0%. For the same compound, the inhibition at 10 µM (ULK1; read-out: inhibition (10 μM)) was -54.6%, the inhibition at 10 µM (NEK4; read-out: % inhibition (range)) was 0% and the inhibition at 10 µM (NEK4; read-out: inhibition (10 μM)) was -2.8%. The inhibition at 10 µM (MAP3K5; read-out: % inhibition (range)) was 0%, the inhibition at 10 µM (MAP3K5; read-out: inhibition (10 μM)) was -6.2% and the inhibition at 10 µM (CaMK2g; read-out: % inhibition (range)) was 0%. For the same compound, the inhibition at 10 µM (CaMK2g; read-out: inhibition (10 μM)) was -13%, the inhibition at 10 µM (OSR1; read-out: % inhibition (range)) was 0% and the inhibition at 10 µM (OSR1; read-out: inhibition (10 μM)) was 22.8%. For the same compound, the “% inhibition (range)” value ([1]; 10 μM) was over 90%, the “inhibition (10 μM)” value [1] was 94.5% and the inhibition at 10 µM (CaMKK2; read-out: % inhibition (range)) was 50 to 75%. The inhibition at 10 µM (CaMKK2; read-out: inhibition (10 μM)) was 57%, the inhibition at 10 µM (PKR; read-out: % inhibition (range)) was 0% and the inhibition at 10 µM (PKR; read-out: inhibition (10 μM)) was -0.8%. For the same compound, the inhibition at 10 µM (LATS1; read-out: % inhibition (range)) was 0%, the inhibition at 10 µM (LATS1; read-out: inhibition (10 μM)) was 4.8% and the inhibition at 10 µM (MPSK1; read-out: % inhibition (range)) was 0%. It also gave an inhibition at 10 µM (MPSK1; read-out: inhibition (10 μM)) of -9.1%, an inhibition at 10 µM (IRAK4; read-out: % inhibition (range)) of 0% and an inhibition at 10 µM (IRAK4; read-out: inhibition (10 μM)) of -0.7%. It also gave an inhibition at 10 µM (KHS1; read-out: % inhibition (range)) of 75 to 90%, an inhibition at 10 µM (KHS1; read-out: inhibition (10 μM)) of 75.6% and an inhibition at 10 µM (GSK3B; read-out: % inhibition (range)) of over 90%. The inhibition at 10 µM (GSK3B; read-out: inhibition (10 μM)) was 96.4%, the inhibition at 10 µM (ACK; read-out: % inhibition (range)) was 0% and the inhibition at 10 µM (ACK; read-out: inhibition (10 μM)) was -18.8%. For the same compound, the inhibition at 10 µM (MAP2K5; read-out: % inhibition (range)) was 50 to 75%, the inhibition at 10 µM (MAP2K5; read-out: inhibition (10 μM)) was 58% and the inhibition at 10 µM (LYN; read-out: % inhibition (range)) was 0%. The inhibition at 10 µM (LYN; read-out: inhibition (10 μM)) was -10.3%, the inhibition at 10 µM (STLK3; read-out: % inhibition (range)) was 0% and the inhibition at 10 µM (STLK3; read-out: inhibition (10 μM)) was 13.5%. For the same compound, the inhibition at 10 µM (PKCi; read-out: % inhibition (range)) was 0%, the inhibition at 10 µM (PKCi; read-out: inhibition (10 μM)) was 12.7% and the inhibition at 10 µM (PFTAIRE1; read-out: % inhibition (range)) was 0%. For the same compound, the inhibition at 10 µM (PFTAIRE1; read-out: inhibition (10 μM)) was 22.2%, the inhibition at 10 µM (CDK5; read-out: % inhibition (range)) was 0% and the inhibition at 10 µM (CDK5; read-out: inhibition (10 μM)) was 17%. For the same compound, the “% inhibition (range)” value (MST4, YSK1; 10 μM) was 75-90%, the “inhibition (10 μM)” value (MST4, YSK1) was 76.7% and the “% inhibition (range)” value (JNK1, JNK2, JNK3; 10 μM) was 0.0%. For the same compound, the “inhibition (10 μM)” value (JNK1, JNK2, JNK3) was −12.9%, the inhibition at 10 µM (SGK3; read-out: % inhibition (range)) was 0% and the inhibition at 10 µM (SGK3; read-out: inhibition (10 μM)) was 9.9%.
